{"source": "ChEMBL document CHEMBL1201862", "about": "“PubChem BioAssay data set” (2004)", "assay_in_all_cases": "inhibition of tumour cell growth, NCI panel, 48 h", "key": {"[1]": {"test_system": "786-0"}, "[2]": {"test_system": "A498"}, "[3]": {"test_system": "A549"}, "[4]": {"test_system": "ACHN"}, "[5]": {"test_system": "CAKI-1"}, "[6]": {"test_system": "CCRF-CEM"}, "[7]": {"test_system": "COLO 205"}, "[8]": {"test_system": "DLD-1"}, "[9]": {"test_system": "DMS-114"}, "[10]": {"test_system": "DMS-273"}, "[11]": {"test_system": "EKVX"}, "[12]": {"test_system": "HCC 2998"}, "[13]": {"test_system": "HCT-116"}, "[14]": {"test_system": "HCT-15"}, "[15]": {"test_system": "HL-60"}, "[16]": {"test_system": "HOP-18"}, "[17]": {"test_system": "HOP-92"}, "[18]": {"test_system": "HT-29"}, "[19]": {"test_system": "IGROV-1"}, "[20]": {"test_system": "K562"}, "[21]": {"test_system": "KM-20L2"}, "[22]": {"test_system": "KM12"}, "[23]": {"test_system": "LOX IMVI"}, "[24]": {"test_system": "LXFL 529"}, "[25]": {"test_system": "M14"}, "[26]": {"test_system": "M19-MEL"}, "[27]": {"test_system": "MOLT-4"}, "[28]": {"test_system": "Malme-3M"}, "[29]": {"test_system": "NCI-H226"}, "[30]": {"test_system": "NCI-H23"}, "[31]": {"test_system": "NCI-H522"}, "[32]": {"test_system": "OVCAR-3"}, "[33]": {"test_system": "OVCAR-4"}, "[34]": {"test_system": "OVCAR-5"}, "[35]": {"test_system": "OVCAR-8"}, "[36]": {"test_system": "RPMI-8226"}, "[37]": {"test_system": "RXF 393"}, "[38]": {"test_system": "RXF 631"}, "[39]": {"test_system": "SF-268"}, "[40]": {"test_system": "SF-295"}, "[41]": {"test_system": "SF-539"}, "[42]": {"test_system": "SK-MEL-28"}, "[43]": {"test_system": "SK-MEL-2"}, "[44]": {"test_system": "SK-MEL-5"}, "[45]": {"test_system": "SK-OV-3"}, "[46]": {"test_system": "SN12C"}, "[47]": {"test_system": "SNB-19"}, "[48]": {"test_system": "SNB-75"}, "[49]": {"test_system": "SNB-78"}, "[50]": {"test_system": "SW-620"}, "[51]": {"test_system": "TK-10"}, "[52]": {"test_system": "U-251"}, "[53]": {"test_system": "UACC-257"}, "[54]": {"test_system": "UACC-62"}, "[55]": {"test_system": "UO-31"}}, "note": "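Tested at 5 concentrations; 48 h exposure; 96-well plates; endpoints linearly interpolated, else capped at highest concentration. GI50: concentration for 50% inhibition of growth.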 Active and inactive are the calls of the source. No stated cut-off is given here; in the data, active = GI50 up to about 1.1 µM and inactive = higher.", "data": [{"compound": "O=C1C=Cc2noc3cccc1c23", "values": [{"measurement": "GI50", "setting": "[1]", "value": "7.08 µM (inactive)"}, {"measurement": "GI50", "setting": "[2]", "value": "13.6 µM (inactive)"}, {"measurement": "GI50", "setting": "[3]", "value": "19 µM (inactive)"}, {"measurement": "GI50", "setting": "[4]", "value": "2.76 µM (inactive)"}, {"measurement": "GI50", "setting": "[5]", "value": "12.5 µM (inactive)"}, {"measurement": "GI50", "setting": "[6]", "value": "412 nM (active)"}, {"measurement": "GI50", "setting": "[7]", "value": "17 µM (inactive)"}, {"measurement": "GI50", "setting": "[8]", "value": "1.66 µM (inactive)"}, {"measurement": "GI50", "setting": "[9]", "value": "2.07 µM (inactive)"}, {"measurement": "GI50", "setting": "[10]", "value": "6.61 µM (inactive)"}, {"measurement": "GI50", "setting": "[11]", "value": "3.9 µM (inactive)"}, {"measurement": "GI50", "setting": "[12]", "value": "14.7 µM (inactive)"}, {"measurement": "GI50", "setting": "[13]", "value": "2.11 µM (inactive)"}, {"measurement": "GI50", "setting": "[14]", "value": 3.08, "unit": "µM"}, {"measurement": "GI50", "setting": "[15]", "value": "1.05 µM (active)"}, {"measurement": "GI50", "setting": "[16]", "value": "18.7 µM (inactive)"}, {"measurement": "GI50", "setting": "[17]", "value": "2.28 µM (inactive)"}, {"measurement": "GI50", "setting": "[18]", "value": "15.1 µM (inactive)"}, {"measurement": "GI50", "setting": "[19]", "value": "12.9 µM (inactive)"}, {"measurement": "GI50", "setting": "[20]", "value": "2.5 µM (inactive)"}, {"measurement": "GI50", "setting": "[21]", "value": "15.5 µM (inactive)"}, {"measurement": "GI50", "setting": "[22]", "value": "4.85 µM (inactive)"}, {"measurement": "GI50", "setting": "[23]", "value": "3.15 µM (inactive)"}, {"measurement": "GI50", "setting": "[24]", "value": "1.94 µM (inactive)"}, {"measurement": "GI50", "setting": "[25]", "value": "9.08 µM (inactive)"}, {"measurement": "GI50", "setting": "[26]", "value": "3.18 µM (inactive)"}, {"measurement": "GI50", "setting": "[27]", "value": "836 nM (active)"}, {"measurement": "GI50", "setting": "[28]", "value": "12.3 µM (inactive)"}, {"measurement": "GI50", "setting": "[29]", "value": "19.1 µM (inactive)"}, {"measurement": "GI50", "setting": "[30]", "value": "8.97 µM (inactive)"}, {"measurement": "GI50", "setting": "[31]", "value": "1.29 µM (inactive)"}, {"measurement": "GI50", "setting": "[32]", "value": "3.31 µM (inactive)"}, {"measurement": "GI50", "setting": "[33]", "value": "2.07 µM (inactive)"}, {"measurement": "GI50", "setting": "[34]", "value": "14.5 µM (inactive)"}, {"measurement": "GI50", "setting": "[35]", "value": "2.88 µM (inactive)"}, {"measurement": "GI50", "setting": "[36]", "value": "2.01 µM (inactive)"}, {"measurement": "GI50", "setting": "[37]", "value": "2.52 µM (inactive)"}, {"measurement": "GI50", "setting": "[38]", "value": "13.8 µM (inactive)"}, {"measurement": "GI50", "setting": "[39]", "value": "3.15 µM (inactive)"}, {"measurement": "GI50", "setting": "[40]", "value": "18.6 µM (inactive)"}, {"measurement": "GI50", "setting": "[41]", "value": "16.4 µM (inactive)"}, {"measurement": "GI50", "setting": "[42]", "value": "5.47 µM (inactive)"}, {"measurement": "GI50", "setting": "[43]", "value": "7.4 µM (inactive)"}, {"measurement": "GI50", "setting": "[44]", "value": "10.5 µM (inactive)"}, {"measurement": "GI50", "setting": "[45]", "value": "18.1 µM (inactive)"}, {"measurement": "GI50", "setting": "[46]", "value": "11.7 µM (inactive)"}, {"measurement": "GI50", "setting": "[47]", "value": "17.5 µM (inactive)"}, {"measurement": "GI50", "setting": "[48]", "value": "11.6 µM (inactive)"}, {"measurement": "GI50", "setting": "[49]", "value": "2.86 µM (inactive)"}, {"measurement": "GI50", "setting": "[50]", "value": "4.01 µM (inactive)"}, {"measurement": "GI50", "setting": "[51]", "value": "18.4 µM (inactive)"}, {"measurement": "GI50", "setting": "[52]", "value": "13.4 µM (inactive)"}, {"measurement": "GI50", "setting": "[53]", "value": "12.6 µM (inactive)"}, {"measurement": "GI50", "setting": "[54]", "value": "3.06 µM (inactive)"}, {"measurement": "GI50", "setting": "[55]", "value": "4.62 µM (inactive)"}]}]}
